In paper PMC7470027, “Synthesis and structure-activity relationships of novel 5-(hydroxamic acid)methyl oxazolidinone derivatives as 5-lipoxygenase inhibitors” (Journal of Enzyme Inhibition and Medicinal Chemistry, 2020):

Legend:
isolated human monocytes = assay: In vitro toxicity testing, MTT viability; assay type: cell-based; conditions: concentrations up to 50 μM, 3 h or 24 h
Description: Adherent human monocytes, prepared as described above were cultured with various concentrations of the test compounds or vehicle, or with 0.05% Triton-X as a positive control for 3 h or 24 h. At the end of the culture, cell viability was determined using the standard MTT assay method. Briefly, 15 μL of the MTT solution (5 mg/ml) was added to each well and incubated at 37 °C for 4 h. After removing the supernatant, 200 μL of DMSO was added to dissolve the crystals. Absorbance at 570 nm was then measured in a microplate reader. Viability was expressed as a percentage of the vehicle-treated cells.

[1] = system: leukotriene (LT) biosynthesis / 5-LO; assay: Overall activity across the four in vitro test systems (three cell-based LT release assays and 5-LO)
Description: Furthermore, in order to confirm that the in vitro inhibitory activity of the compounds was not due to the direct toxic effects on the cells, the effect of the compounds on the viability of isolated human monocytes after 3 h and 24 h treatment was performed. Finally, in vivo anti-inflammatory studies were performed using the zymosan-induced peritoneal inflammation model in mice, which is a well-known model in which the LTs are known to play a critical role[26].
The inhibitory activity data for the tested compounds obtained in three cell-based in vitro test systems - LTB4 release from human whole blood, LTC4 release from isolated human monocytes and LTC4 release from IgE/antigen-activated mouse mast cells, are shown in Table 1. Similar data on the direct inhibitory effect on the enzymatic activity of recombinant human 5-LO, together with the calculated Clog P (log of partition coefficient) values, which is an indication of the lipophilicity of each compound, are also shown in Table 1.

[2] = system: zymosan-induced peritoneal inflammation; assay: Zymosan-induced peritoneal inflammation model in mice; assay type: in vivo, mouse; conditions: for Inhibition of total LTC4 content of the peritoneal lavage fluid: p < 0.001 vs zymosan plus vehicle
Description: Female Balb/c mice 6 to 8-weeks-old obtained from the Animal Resources Centre of the Health Sciences Centre, Kuwait University, were used. They were maintained under temperature-controlled conditions with an artificial 12-h light/dark cycle and allowed standard chow and water ad libitum. The study was carried out in compliance with the Regulations for the Use of Laboratory Animals in the Health Sciences Centre, Kuwait University, and complied with the National Institute of Health guide for the care and use of laboratory animals (NIH Publication # 8023, revised 1978). The zymosan-induced peritonitis model - a recognised LT-mediated inflammatory reaction, was used. […] After 30 min, all groups were injected intraperitoneally with 0.2 ml of activated zymosan (2 mg/ml) except the control group that received 0.2 ml PBS. After 2 h, all animals were killed, and the peritoneal exudate collected by washing the cavity with 3 ml of heparinised (10 IU/ml) PBS. Cells in the exudate were recovered by centrifugation and counted in a haemocytometer while the supernatant volume was recorded and then stored frozen at −78 °C until used for the determination of LTC4 by ELISA as detailed above.

[3] = 10 mg/kg subcutaneously 30 min before zymosan

CCCCCCC(=O)N(O)C[C@H]1CN(c2ccc(N3CCOCC3)c(F)c2)C(=O)O1 [PH-249, (R)-N-((3-(3-fluoro-4-morpholinophenyl)-2-oxooxazolidin-5-yl)methyl)-N-hydroxyheptanamide]
Effect on viability of isolated human monocytes (MTT) (isolated human monocytes): no significant effect on cell viability
Activity across the in vitro test systems (in words) ([1]; cell-based systems and cell-free 5-LO): active in all four test systems
IC50 ([1]; summary statements, in vitro test systems, read-out: IC50 (test system not specified / across test systems)): < 1000 nM
Inhibition of cellular infiltration (total cellular content of peritoneal lavage) [2, 3]: only the inhibition by the higher dose reached statistical significance
Inhibition of total LTC4 content of the peritoneal lavage fluid [2, 3]: highly significant inhibition
Inhibition of total LTC4 content of the peritoneal lavage fluid ([2]; 30 mg/kg subcutaneously 30 min before zymosan): highly significant inhibition
Inhibition of cellular infiltration (total cellular content of peritoneal lavage) ([2]; 30 mg/kg subcutaneously 30 min before zymosan, p < 0.01 vs zymosan plus vehicle): reached statistical significance
